Assay results from patent US20060099643A1, “Method for determining the regulation of xenobiotic removal” (priority 2002, published 2006).

What was measured:
SXR [1] = target: T1, SXR (Homo sapiens, UniProt O75469); test: Microplate thermal shift assay (Thermofluor) of SXR with ligands, co-activator peptide SRC1-NR2 and co-repressor peptide NCoR-1; settings: for ΔΔTm SRC1-NR2 / ΔΔTm NcoR1-NR2 / ΔTm ligand: SXR 6 μM, ligand 50 μM; for ΔΔTm SRC1-NR2: co-activator peptide SRC1-NR2 100 μM; for ΔΔTm SRC1-NR2 / ΔΔTm NcoR1-NR2: change from the receptor-ligand ΔTm; for ΔΔTm NcoR1-NR2: co-repressor peptide NCoR-1 100 μM; for ΔTm ligand: average of four experiments; for Probability Agonist (statistical probability of agonist state): computed from affinities derived from ΔΔTm with co-regulator peptides (FIG. 3); for ΔTm at 100 µM: read-out: ΔΔTm NcoR1-NR2
T1 sequence (O75469 1-434): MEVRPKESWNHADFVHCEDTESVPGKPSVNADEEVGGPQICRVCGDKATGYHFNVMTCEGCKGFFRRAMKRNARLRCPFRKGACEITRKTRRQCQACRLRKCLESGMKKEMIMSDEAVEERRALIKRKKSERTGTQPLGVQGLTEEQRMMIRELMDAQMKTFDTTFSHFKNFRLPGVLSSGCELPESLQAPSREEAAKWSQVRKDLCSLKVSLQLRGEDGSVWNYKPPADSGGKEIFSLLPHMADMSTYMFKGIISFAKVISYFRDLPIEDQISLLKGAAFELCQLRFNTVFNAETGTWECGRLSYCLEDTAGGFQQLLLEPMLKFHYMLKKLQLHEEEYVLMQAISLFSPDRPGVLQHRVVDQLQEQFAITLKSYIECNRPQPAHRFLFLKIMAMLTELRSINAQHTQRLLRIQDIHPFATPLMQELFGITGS
Procedure: A 2 μL ligand solution at 2 times the final concentration was dispensed with a micropipette into a 384 well black wall Greiner plate. Then, 2 μL of the protein dye solution was dispensed on top of the ligand solution in the 384 well plate. The plates were spun to ensure mixing of the protein-dye and ligand solutions followed by layering of 1 μL of silicone oil to prevent evaporation during heating of the samples. […] The values for the co-regulators represent a change in Tm stabilization from the receptor-ligand ΔTm values.

SXR [2] = target: T1, SXR; settings: from Ekins & Erickson, Drug Metabolism and Disposition, 30, 96-99 and references therein; cited from earlier work
ER-β [3] = target: ER-β (Homo sapiens, UniProt Q92731); test: Microplate thermal shift assay (Thermofluor) of ER-β with ligands and co-regulators; type: binding; settings: for Observed ΔTm Stabilization, SRC3-NR2: co-activator peptide SRC3-NR2 100 μM; for Observed ΔTm Stabilization, NR2: change in Tm stabilization from the receptor-ligand ΔTm; for Observed ΔTm Stabilization, NR2 / Observed ΔTm Stabilization, SRC-3: head shifted, see doubts; for Observed ΔTm Stabilization, SRC-3: average of four experiments
Procedure: (§1) A 2 μM ligand solution at 2 times the final concentration was dispensed with a micropipette into a 384 well black wall Greiner plate. Then, 2 μL of the protein dye solution was dispensed on top of the ligand solution in the 384 well plate. The plates were spun to ensure mixing of the protein-dye and ligand solutions followed by layering of 1 μL of silicone oil to prevent evaporation during heating of the samples.

ER-α [4] = target: T2, ER-α (Homo sapiens, UniProt P03372); test: Microplate thermal shift assay (Thermofluor) of ER-α with ligands and co-regulators; type: binding
T2 sequence (P03372 1-595): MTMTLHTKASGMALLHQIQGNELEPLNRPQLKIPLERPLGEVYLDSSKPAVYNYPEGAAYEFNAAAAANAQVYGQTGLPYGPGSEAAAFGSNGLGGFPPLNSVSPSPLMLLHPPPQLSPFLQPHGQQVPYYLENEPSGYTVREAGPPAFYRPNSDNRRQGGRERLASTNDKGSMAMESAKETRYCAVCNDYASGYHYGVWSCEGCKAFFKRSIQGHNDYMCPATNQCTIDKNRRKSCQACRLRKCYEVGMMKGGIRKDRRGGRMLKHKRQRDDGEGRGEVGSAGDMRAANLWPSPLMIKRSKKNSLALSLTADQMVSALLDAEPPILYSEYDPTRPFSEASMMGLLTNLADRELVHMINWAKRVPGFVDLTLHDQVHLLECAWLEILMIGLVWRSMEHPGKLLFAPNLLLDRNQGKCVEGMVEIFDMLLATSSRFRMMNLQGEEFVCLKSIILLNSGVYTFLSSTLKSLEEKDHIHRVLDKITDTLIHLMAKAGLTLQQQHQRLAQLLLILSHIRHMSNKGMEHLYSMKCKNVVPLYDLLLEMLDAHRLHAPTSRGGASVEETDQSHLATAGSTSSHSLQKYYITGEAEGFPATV
Procedure: as §1

ER-β [5] = target: T3, ER-β (UniProt Q92731 256-505, limits assumed); test: Thermofluor thermal shift; ER-β 8 µM with ICI-182780 20 µM; peptide 100 µM
T3 construct: also called estrogen receptor beta
Procedure: as §1

ER-β [6] = target: T3, ER-β; test: Thermofluor thermal shift; ER-β 8 µM with estradiol 20 µM; peptide 100 µM
Procedure: as §1

ER-α [7] = target: T4, ER-α (UniProt P03372 297-554, limits assumed); test: Thermofluor thermal shift; ER-α 8 µM with 4-OH-tamoxifen 20 µM; peptide 100 µM
T4 construct: also called estrogen receptor alpha
T4 sequence (looked up): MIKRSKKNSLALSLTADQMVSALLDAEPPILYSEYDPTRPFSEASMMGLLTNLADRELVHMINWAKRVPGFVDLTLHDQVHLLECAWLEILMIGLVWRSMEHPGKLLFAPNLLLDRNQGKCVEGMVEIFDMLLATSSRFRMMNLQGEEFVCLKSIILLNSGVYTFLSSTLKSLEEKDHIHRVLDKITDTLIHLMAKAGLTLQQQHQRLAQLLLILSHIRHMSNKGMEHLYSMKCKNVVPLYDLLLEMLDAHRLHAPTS
Procedure: as §1

ER-β [8] = target: T3, ER-β; test: Thermofluor thermal shift; ER-β 8 µM with estrone 20 µM; peptide 100 µM
Procedure: as §1

ER-β [9] = target: T3, ER-β; test: Thermofluor thermal shift; ER-β 8 µM with 4-OH-tamoxifen 20 µM; peptide 100 µM
Procedure: as §1

ER-α [10] = target: T4, ER-α; test: Thermofluor thermal shift; ER-α 8 µM with 17-α-ethylene-E2 20 µM; peptide 100 µM
Procedure: as §1

ER-α [11] = target: T4, ER-α; test: Thermofluor thermal shift; ER-α 8 µM with estradiol 20 µM; peptide 100 µM
Procedure: as §1

ER-β [12] = target: T3, ER-β; test: Thermofluor thermal shift; ER-β 8 µM with 2-methoxy-E2 20 µM; peptide 100 µM
Procedure: as §1

ER-α [13] = target: T4, ER-α; test: Thermofluor thermal shift; ER-α 8 µM with ICI-182780 20 µM; peptide 100 µM
Procedure: as §1

ER-β [14] = target: T3, ER-β; test: Thermofluor thermal shift; ER-β 8 µM with 17-α-ethylene-E2 20 µM; peptide 100 µM
Procedure: as §1

ER-β [15] = target: T3, ER-β; test: Thermofluor thermal shift; ER-β 8 µM with tamoxifen 20 µM; peptide 100 µM
Procedure: as §1

ER-α [16] = target: T4, ER-α; test: Thermofluor thermal shift; ER-α 8 µM with estrone 20 µM; peptide 100 µM
Procedure: as §1

ER-α [17] = target: T4, ER-α; test: Thermofluor thermal shift; ER-α 8 µM with 2-methoxy-E2 20 µM; peptide 100 µM
Procedure: as §1

ER-α [18] = target: T4, ER-α; test: Thermofluor thermal shift; ER-α 8 µM, no ligand; peptide 100 µM
Procedure: as §1

ER-α [19] = target: T4, ER-α; test: Thermofluor thermal shift; ER-α 8 µM with tamoxifen 20 µM; peptide 100 µM
Procedure: as §1

ER-β [20] = target: T3, ER-β; test: Thermofluor thermal shift; ER-β 8 µM, no ligand; peptide 100 µM
Procedure: as §1

[21] = ER-β 8 μM, ligand 20 μM, change from the receptor-ligand ΔTm

T3 sequence (Q92731 256-505 limits assumed): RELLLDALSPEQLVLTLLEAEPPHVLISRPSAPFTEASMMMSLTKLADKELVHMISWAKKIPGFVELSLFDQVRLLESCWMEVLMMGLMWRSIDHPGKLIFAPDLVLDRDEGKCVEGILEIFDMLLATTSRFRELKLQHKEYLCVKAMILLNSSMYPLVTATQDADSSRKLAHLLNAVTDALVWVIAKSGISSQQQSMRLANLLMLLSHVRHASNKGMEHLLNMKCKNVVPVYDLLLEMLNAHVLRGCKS
ER-β (Homo sapiens, UniProt Q92731), sequence (Q92731 whole entry, species assumed): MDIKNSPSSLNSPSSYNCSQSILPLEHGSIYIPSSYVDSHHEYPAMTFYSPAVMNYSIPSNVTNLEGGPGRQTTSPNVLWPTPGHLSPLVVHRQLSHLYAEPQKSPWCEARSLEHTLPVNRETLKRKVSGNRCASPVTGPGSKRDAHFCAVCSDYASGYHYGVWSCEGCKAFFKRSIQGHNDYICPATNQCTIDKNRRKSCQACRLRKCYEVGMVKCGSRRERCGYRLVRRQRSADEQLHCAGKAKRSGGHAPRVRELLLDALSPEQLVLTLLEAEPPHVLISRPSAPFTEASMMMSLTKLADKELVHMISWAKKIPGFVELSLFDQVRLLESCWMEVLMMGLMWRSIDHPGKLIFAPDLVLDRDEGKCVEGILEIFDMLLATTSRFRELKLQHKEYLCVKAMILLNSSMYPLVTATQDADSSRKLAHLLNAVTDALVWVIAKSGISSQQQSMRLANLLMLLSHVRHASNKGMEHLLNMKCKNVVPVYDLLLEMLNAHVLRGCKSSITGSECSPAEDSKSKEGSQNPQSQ

CC(=O)[C@H]1CC[C@H]2[C@@H]3CCC4=CC(=O)CC[C@]4(C)[C@H]3[C@H](O)C[C@]12C [11-α-hydroxy-progesterone]
ΔΔTm SRC1-NR2 (SXR [1]): 4.6
ΔΔTm NcoR1-NR2 (SXR [1]): 1.0
ΔTm ligand (SXR [1]): 6.3 °C
Probability Agonist (statistical probability of agonist state) (SXR [1]): 0.96

CC(=O)[C@@]1(O)CC[C@H]2[C@@H]3CCC4=CC(=O)CC[C@]4(C)[C@H]3CC[C@@]21C [17-α-hydroxyprogesterone]
Probability Agonist (statistical probability of agonist state) (SXR [1]): 0.47

C[C@]12CC[C@@H](O)C[C@@H]1CC[C@@H]1[C@@H]2CC[C@]2(C)C(=O)CC[C@@H]12 [Androsterone]
ΔΔTm SRC1-NR2 (SXR [1]): 3.5
ΔTm ligand (SXR [1]): 3.3 °C
Probability Agonist (statistical probability of agonist state) (SXR [1]): 0.45
ΔTm at 100 µM (SXR [1]): 3.8 °C

CCOC(=O)C(C)(C)Oc1ccc(Cl)cc1 [Clofibrate]
Kd (SXR [1]): 23 µM
ΔΔTm SRC1-NR2 (SXR [1]): 3.3
ΔTm ligand (SXR [1]): 1.3 °C
Probability Agonist (statistical probability of agonist state) (SXR [1]): 0.49
ΔTm at 100 µM (SXR [1]): 3.4 °C

C[C@]12C[C@H](O)[C@H]3[C@@H](CCC4=CC(=O)CC[C@@]43C)[C@@H]1CC[C@@H]2C(=O)CO [Corticosterone]
fold activation (SXR [2]): 12 fold
Kd (SXR [1]): 1.32 µM
ΔΔTm SRC1-NR2 (SXR [1]): 2.7
ΔTm ligand (SXR [1]): 5 °C
Probability Agonist (statistical probability of agonist state) (SXR [1]): 0.93
ΔTm at 100 µM (SXR [1]): 0.5 °C

C[C@]12CCC(=O)C=C1CC[C@@H]1[C@@H]2C(=O)C[C@@]2(C)[C@H]1CC[C@]2(O)C(=O)CO [Cortisone]
ΔΔTm NcoR1-NR2 (SXR [1]): 3.6
Probability Agonist (statistical probability of agonist state) (SXR [1]): 0.37

C[C@]12CC[C@@H]3c4ccc(O)cc4CC[C@H]3[C@@H]1CC[C@@H]2O [Estradiol]
Observed ΔTm Stabilization, SRC3-NR2 (ER-β [3]; [21]): 3.5
Observed ΔTm Stabilization, NR2 (ER-β [3]; ER-β 8 μM, ligand 20 μM): 3.4
Kd (SXR [1]): 8.7 µM
ΔΔTm SRC1-NR2 (SXR [1]): 3.9
Probability Agonist (statistical probability of agonist state) (SXR [1]): 0.76
ΔTm at 100 µM (SXR [1]): 2.3 °C

C[C@]12CCC(=O)C=C1CC[C@@H]1[C@@H]2[C@@H](O)C[C@@]2(C)[C@H]1CC[C@]2(O)C(=O)CO [Hydrocortisone]
Kd (SXR [1]): 17 µM
ΔΔTm SRC1-NR2 (SXR [1]): 3.3
ΔTm ligand (SXR [1]): 1.6 °C
Probability Agonist (statistical probability of agonist state) (SXR [1]): 0.44
ΔTm at 100 µM (SXR [1]): 3.7 °C

C[C@]12CC[C@@H]3c4ccc(O)cc4C[C@@H](CCCCCCCCC[S+]([O-])CCCC(F)(F)C(F)(F)F)[C@H]3[C@@H]1CC[C@@H]2O (some centres unmarked) [ICI-182780]
Observed ΔTm Stabilization, SRC3-NR2 (ER-α [4]; ER-α 8 μM, ligand 20 μM, co-activator peptide SRC3-NR2 100 μM, change from the receptor-ligand ΔTm): 0.2
ΔTm at 100 µM (ER-α [4]; ER-α 8 μM, ligand 20 μM, co-repressor peptide NCoR-1 100 μM, change from the receptor-ligand ΔTm, read-out: Observed ΔTm Stabilization, NCoR1-NR1): -0.6 °C
Observed ΔTm Stabilization, NR2 (ER-α [4]; ER-α 8 μM, ligand 20 μM, change in Tm stabilization from the receptor-ligand ΔTm, head shifted, see doubts): 0.2
Recruitment of co-activators (additional stabilization in the presence of co-activator protein/peptide) (ER-α [4]; result in words): no ability to recruit co-activators
ΔTm at 100 µM (ER-β [3]; ER-β 8 μM, ligand 20 μM, co-repressor peptide NCoR-1 100 μM, change from the receptor-ligand ΔTm, read-out: Observed ΔTm Stabilization, NCoR1-NR1): 0.3 °C
Observed ΔTm Stabilization, SRC-3 (ER-β [3]; ER-β 8 μM, ligand 20 μM): 16.7
Observed ΔTm Stabilization, NR2 (ER-β [3]; ER-β 8 μM, ligand 20 μM): 0.4
Recruitment of co-activators (additional stabilization in the presence of co-activator protein/peptide) (ER-β [3]; result in words): no ability to recruit co-activators

COc1cc2c(cc1O)CC[C@@H]1[C@@H]2CC[C@]2(C)[C@@H](O)CC[C@@H]12 [Ligand 2-methoxy-E2, 2-methoxy-E2]
Observed ΔTm Stabilization, SRC-3 (ER-α [4]; ER-α 8 μM, ligand 20 μM, average of four experiments, head shifted, see doubts): 3.5
Observed ΔTm Stabilization, SRC3-NR2 (ER-β [3]; [21]): 4.4
Observed ΔTm Stabilization, NCoR1-NR1 (ER-β [3]; ER-β 8 μM, ligand 20 μM, co-repressor peptide NCoR-1 100 μM, change from the receptor-ligand ΔTm): −0.7
Observed ΔTm Stabilization, SRC-3 (ER-β [3]; ER-β 8 μM, ligand 20 μM): 2.9
Observed ΔTm Stabilization, NR2 (ER-β [3]; ER-β 8 μM, ligand 20 μM): 4.4

C[C@H](CCC(=O)O)[C@H]1CC[C@H]2[C@@H]3CC[C@@H]4C[C@H](O)CC[C@]4(C)[C@H]3CC[C@]12C [Lithocholic acid]
ΔΔTm SRC1-NR2 (SXR [1]): 2.9
ΔTm ligand (SXR [1]): 2.4 °C
ΔTm at 100 µM (SXR [1]): 1.4 °C

MHGSLLQEKHRILHKLLQNGNSP (peptide, UniProt Q9Y6Q9 673-695, looked up, Peptide fragment of SRC-3) [co-activator peptide SRC3-NR2]
change in Tm stabilization from the receptor-ligand ΔTm (ER-β [5]): 0.6
change in Tm stabilization from the receptor-ligand ΔTm (ER-β [6]): 3.5
change in Tm stabilization from the receptor-ligand ΔTm (ER-α [7]): 0.7
change in Tm stabilization from the receptor-ligand ΔTm (ER-β [8]): 3.7
change in Tm stabilization from the receptor-ligand ΔTm (ER-β [9]): 0.8
change in Tm stabilization from the receptor-ligand ΔTm (ER-α [10]): 3.9
change in Tm stabilization from the receptor-ligand ΔTm (ER-α [11]): 4.3
change in Tm stabilization from the receptor-ligand ΔTm (ER-β [12]): 4.4
change in Tm stabilization from the receptor-ligand ΔTm (ER-α [13]): 0.2
change in Tm stabilization from the receptor-ligand ΔTm (ER-β [14]): 2.6
change in Tm stabilization from the receptor-ligand ΔTm (ER-β [15]): 0.4
change in Tm stabilization from the receptor-ligand ΔTm (ER-α [16]): 2.3
change in Tm stabilization from the receptor-ligand ΔTm (ER-α [17]): 4.3
change in Tm stabilization from the receptor-ligand ΔTm (ER-α [18]): 0.9
change in Tm stabilization from the receptor-ligand ΔTm (ER-α [19]): 0
change in Tm stabilization from the receptor-ligand ΔTm (ER-β [20]): 0.9
